Earlier results as cited in patent US9814693B2 (priority 2012, dated 2017).
Counter-ions that a name gives are not always drawn.

Columns and labels:
CML = settings: first-line
Barle's L cells = settings: percentage of control cloning efficiency
[1] = test system: Ehrlich ascites tumor cells
L1210 leukemia = settings: mice, early form of L1210 leukemia, various doses
NK/Ly tumor = settings: NK/Ly tumor-bearing mice
S180 ascites tumors = settings: S180 ascites tumor
[2] = test system: intracerebral murine ependymoblastomas; settings: intracerebral tumors
mice [3] = test system: mice
mice [4] = settings: after the start of treatment (time not given); these and previous studies
rabbits [5] = settings: i.v. 2.5 and 0.25 mg/kg every second day for 30 or 70 days
[6] = test system: Chinese hamster cell cultures; settings: low doses, in vitro
rabbits [7] = test system: rabbits
erythrocytes [8] = settings: fresh whole dog blood, 37° C., within 2 hours
erythrocytes [9] = test system: erythrocytes
[10] = normal brain and intracerebral tumor tissue
[11] = compared with all the diepoxyhexitols
[12] = solution in distilled water
[13] = in vivo
[14] = not given; remark: listed apart in the source

SMILES: Cc1ccc(NC(=O)c2ccc(CN3CCN(C)CC3)cc2)cc1Nc1nccc(-c2cccnc2)n1 [Gleevec, imatinib mesylate]
- estimated overall survival rate (CML; CML patients, following two years): 91%
- patients with cytogenetic response (CML): up to 60%
- patients free of disease worsening (CML; following two years): ~90%

SMILES: OC(C1CO1)C(O)C1CO1 (centres unmarked) [dianhydrogalactitol, 1,2:5,6-Dianhydrogalactitol]
- cytomorphologic effect (HeLa cell cultures; 100-μg dose): complete cellular disintegration
- concentration giving 50 percent survival (cloning efficiency) (Barle's L cells): 4 µg/mL
- multinucleated cells, compared with mannitol mustard or dibromodulcitol ([1]; Ehrlich ascites tumor cells): more frequently
- time of earliest detectable ultrastructural effects ([1]; larger dose (7.5 mg/kg i.p.), after administration): 3 h
- time at which ultrastructural effect could be detected ([1]; smaller doses (3.7 mg/kg i.p.), after treatment): 72 to 96 h
- prolongation of lifespan (L1210 leukemia): 50%-200%
- increase in lifespan (NK/Ly tumor): 200%
- animals recovered after treatment (Ehrlich ascites tumor): Fifty
- tumor weight inhibition (Ehrlich ascites tumor; 0.75 mg/kg (one-sixtieth of the LD50)): 68%
- animals recovered after treatment (S180 ascites tumors): Fifty
- antitumor activity [2]: activity
- atrophy of the spleen and lymph nodes, compared with dibromodulcitol (mice [3]; acute toxicity): more marked
- time of death, compared with dibromodulcitol (mice [3]; acute toxicity): died earlier
- symptoms at the LD50 (mice [3]; animals treated with the LD50 (15 mg/kg)): gastrointestinal symptoms (including weight loss) were dominant
- LD80 (mice [3]; mice, single dose): 18 mg/kg
- LD50 (mice [3]; mice, single dose, survivors observed 21 days): 15 mg/kg
- drug accumulation of five cytostatic hexitol derivatives (mice [4]): 0%
- most marked alterations (rabbits [5]): cell population reductions (especially of the myeloid elements) in the bone marrow
- chromosome aberrations [6]: induced characteristic chromosome aberrations
- changes in the parenchymal organs (rats; single 10, 5 or 2.5 mg/kg dose, 1 hour to 21 days): No changes
- LD50 (rats; single dose): 10 mg/kg
- effect on platelet counts (rabbits [7]; repeated injections of smaller doses (17×2.5, 17×0.25 mg/kg i.v.)): no changes in platelet counts
- effect on platelets (rabbits [7]; single 14.0 mg/kg i.v.): persistent thromobocytopenia
- decrease in the granulocyte count (rabbits [7]; single 14.0 mg/kg i.v., disappeared in 30 days): 50%
- LD50 (rabbits [7]; single i.v. dose): 14.0 mg/kg
- dose dependence of distribution and elimination (3 and 6 mg/kg, one dog): dose-independent
- mean Cl (dogs, i.v. 3 and 6 mg/kg): 23.4 mL/min/kg
- mean value of V (dogs, i.v. 3 and 6 mg/kg): 462 mL/kg
- mean value of VDss (dogs, i.v. 3 and 6 mg/kg): 779 mL/kg
- mean t1,2,β (dogs, i.v. 3 and 6 mg/kg, intact drug in plasma): 26.6 min
- death, time after injection (beagle dogs; dog 1, 6 mg/kg i.v. on day 8 after 3 mg/kg on day 1): 7 days
- death, time after administration (beagle dogs; dog 2, 6 mg/kg i.v.): 12 days
- doses at which toxicity occurs (beagle dogs; dog, i.v.): greater than 3 mg/kg
- findings associated with death (beagle dogs; dogs given 6 mg/kg i.v.): bone marrow hypoplasia, leucopenia, and thrombocytopenia
- incubated dose bound to erythrocytes (erythrocytes [8]): 37.7%
- initially present drug remaining with the erythrocytes (erythrocytes [9]; after dialysis for 14 hours): 36%
- initially erythrocyte-bound drug lost to the dialysis medium (erythrocytes [9]; within 2 hours, pH 7.4, 37° C.): 50%
- blood-brain barrier passage [10]: rapidly crosses the blood-brain barrier
- chemical stability [11]: most chemically stable
- local effect of the solution [12]: slight, locally irritating effect

SMILES: O[C@H]([C@H](O)[C@@H](O)CBr)[C@H](O)CBr [dibromodulcitol]
- mitotic index (HeLa cell cultures; 10-μg dose, untreated control 2.9%): 0
- concentration giving 50 percent survival (cloning efficiency) (Barle's L cells): 75 µg/mL
- prolongation of lifespan (L1210 leukemia): 40%
- increase in lifespan (NK/Ly tumor): 90%
- effect on the tumor (Ehrlich ascites tumor; doses equitoxic to 0.75 mg/kg dianhydrogalactitol): no effects
- relative effectiveness (Harding-Passey melanoma): more effective than dianhydrogalactitol
- absorption by the oral route [13]: rapid and fairly complete
- solubility in water [14]: hardly soluble in water
- drug accumulation of five cytostatic hexitol derivatives (mice [4]): 62%

SMILES: CS(=O)(=O)OC[C@@H](O)[C@@H](O)[C@H](O)[C@H](O)COS(C)(=O)=O [mannitol myleran]
- drug accumulation of five cytostatic hexitol derivatives (mice [4]): 45%
